The values below come from US7572774B2, “Methods for treating glutamate cytotoxicity with beta-naphthoquinone compounds” (Centre National de la Recherche Scientific (C.N.R.S.), priority 1999, dated 2009).

The experiment deals with release of glutamate from synaptosomes of mouse brains. Put plainly: Release of glutamate from synaptosomes of mouse brains (cerebellar mossy fibers), spontaneous and induced by depolarization, chemiluminescence detection. It is filed as cell-based. On the procedure:
B: Study of the effect of naftazone and of its glucuronide derivatives on the release of glutamate from synaptosomes of mouse brains.
In order to prepare the synaptosomes of mossy fibers, the Swiss-Webster […] are decapitated and the cerebellum is rapidly removed. Small pieces of tissue (1–2 mm^3) are washed in 100 ml of a mammal saline standard solution containing (mM): NaCl, 136; KCl, 5.6; MgCl2 1.2; CaCl2 2.2; glucose 5.5; NaHCO3 7.5; NaHPO4/Na2HPO4 buffer 1.2.
An oxygen current is caused to flow through them for 10 minutes.
In order to dissociate the pieces, they are sucked in a reciprocal movement with a 1 ml pipette.
The homogenate obtained is diluted in 3 ml of mammal Krebs's solution and is filtered through a Nylon® tissue (mesh 50 μm).
The filtrate is collected and left to settle for 30–45 min by gravity.
Synaptosomes derived from the glutarmatergic mossy fibers settle because or their large size with the nuclear fraction. The supernatant is discarded and the sediment is resuspended in 1 ml of a standard solution. The release of glutamate from the synaptosomes is detected according to the technique used for evaluating it in the CSF.
FIGS. 2A and 2B show the effects of naftazone (at concentrations of 0.5–50 μM) and of its glucuronidated derivative, respectively, on the spontaneous release of glutamate (curve -∘-) and of that induced by depolarization (curve -•-).
Each point in A and B represents the ISEM average of 3 measurements carried out in triple. In A, the spontaneously released glutamate is continuously measured during an exposure of 1 hour to the tested drug and is compared with controls. Release of glutamate by depolarization is determined after a 1 hour exposure to the tested drug and is compared with controls.
The drugs are left to incubate for 1 hour with synaptosomal aliquots before the measurement.

In the case of `NC(=O)NNc1ccc2ccccc2c1O[C@@H]1O[C@H](C(=O)O)[C@@H](O)[C@H](O)[C@H]1O` [glucuronidated derivative, 1-(1-hydroxy,2-naphthyl)semicarbazide-1-β-O-glucopyranosiduronic acid], the “release of glutamate induced by a medium with a high K+ content” value (K+ (20 mM) containing Ca (5 mM), FIG. 2B) is reported as “reduces, in a dose-dependent way”. For the same compound, where the note is “at highest concentration tested (32 μM), K+ 20 mM, Ca 5 mM”, the “maximum reduction of K+-induced release of glutamate” value is listed as “about 60%”. Where the note is “glucuronidated derivative, range of the concentrations used (FIG. 2B)”, the “spontaneous release of glutamate from synaptosomes” value is “does not reduce the spontaneous release of glutamate”.
